Results on one molecule are retold here after patent publication EP2505659A1, “Methods for the identification of dioxygenase interacting molecules and for the purification of dioxygenase proteins” (CELLZOME AG, priority 2011, dated 2012).

Common to all, as to experiment: Bead competition binding assay, immobilized compound A, K-562, HL-60 and Jurkat nuclear lysates
Common to all, as to settings: 100 µM free compound A, read-out: Fold change versus DMSO control

In assay [1] the target is T1, TMLHE (Homo sapiens, UniProt Q9NVH6).
T1 construct: capturing and identification of dioxygenases from nuclear lysates of three different cell lines; endogenous in cells; host or cells: K-562, HL-60 and Jurkat nuclear lysates
T1 sequence (Q9NVH6 16-421): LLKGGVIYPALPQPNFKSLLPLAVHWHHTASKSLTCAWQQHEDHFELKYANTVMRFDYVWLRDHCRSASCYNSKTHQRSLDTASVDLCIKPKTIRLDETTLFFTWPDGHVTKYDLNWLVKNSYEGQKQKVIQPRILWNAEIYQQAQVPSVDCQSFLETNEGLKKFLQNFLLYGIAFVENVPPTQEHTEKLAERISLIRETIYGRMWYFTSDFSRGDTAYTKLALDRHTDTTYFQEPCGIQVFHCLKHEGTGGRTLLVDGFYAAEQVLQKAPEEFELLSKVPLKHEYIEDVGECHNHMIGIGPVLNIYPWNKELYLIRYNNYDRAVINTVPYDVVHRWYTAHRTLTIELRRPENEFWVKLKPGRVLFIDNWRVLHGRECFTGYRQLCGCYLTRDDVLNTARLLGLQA
From the text:
(§1) K562 cells were also purchased from DSMZ (Braunschweig, Germany).
(§2) Table 5: Peptide elution off the LC system
(§3) Seventeen different dioxygenases were identified.

In assay [2] the target is T2, LEPRE1 (Homo sapiens, UniProt Q32P28).
T2 construct: capturing and identification of dioxygenases from nuclear protein extracts; endogenous in cells
T2 sequence (Q32P28 23-736): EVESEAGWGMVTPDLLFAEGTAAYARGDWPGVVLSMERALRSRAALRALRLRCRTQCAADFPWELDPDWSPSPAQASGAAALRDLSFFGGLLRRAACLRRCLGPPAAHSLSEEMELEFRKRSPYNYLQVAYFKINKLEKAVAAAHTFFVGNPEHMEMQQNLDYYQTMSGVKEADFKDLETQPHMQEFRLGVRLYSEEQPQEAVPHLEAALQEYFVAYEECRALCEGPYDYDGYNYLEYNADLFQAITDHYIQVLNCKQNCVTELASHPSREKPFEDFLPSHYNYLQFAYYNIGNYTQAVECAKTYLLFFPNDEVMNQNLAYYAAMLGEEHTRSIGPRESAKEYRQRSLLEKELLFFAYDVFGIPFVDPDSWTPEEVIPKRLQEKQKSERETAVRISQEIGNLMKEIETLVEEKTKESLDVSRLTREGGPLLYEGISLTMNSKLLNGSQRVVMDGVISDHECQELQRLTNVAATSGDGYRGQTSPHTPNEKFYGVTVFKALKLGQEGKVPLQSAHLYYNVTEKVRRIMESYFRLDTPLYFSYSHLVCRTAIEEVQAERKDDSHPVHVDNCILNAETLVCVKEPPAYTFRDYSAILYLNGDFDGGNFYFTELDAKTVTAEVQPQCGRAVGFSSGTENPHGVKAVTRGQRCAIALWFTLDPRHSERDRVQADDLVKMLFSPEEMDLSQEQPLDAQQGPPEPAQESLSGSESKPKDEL
Text: as §1, §2, §3

The target in assay [3] is T3, EGLN2 (Homo sapiens, UniProt Q96KS0).
T3 construct: capturing and identification of dioxygenases from nuclear lysates of three different cell lines; endogenous in cells; host or cells: K-562, HL-60 and Jurkat nuclear lysates
Text: as §1, §2, §3

Assay [4] deals with T4, ALKBH7 (Homo sapiens, UniProt Q9BT30).
T4 construct: capturing and identification of dioxygenases from nuclear lysates of three different cell lines; endogenous in cells; host or cells: K-562, HL-60 and Jurkat nuclear lysates
T4 sequence (Q9BT30 21-221): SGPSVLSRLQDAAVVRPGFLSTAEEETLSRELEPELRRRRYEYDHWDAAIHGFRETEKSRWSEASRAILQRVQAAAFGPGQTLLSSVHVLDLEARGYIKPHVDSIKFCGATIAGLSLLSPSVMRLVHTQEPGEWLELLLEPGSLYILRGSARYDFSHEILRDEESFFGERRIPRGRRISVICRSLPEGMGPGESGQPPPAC
Text: as §1, §2, §3

The target of assay [5] is T5, P4HA2 (Homo sapiens, UniProt O15460).
T5 construct: capturing and identification of dioxygenases from nuclear lysates of three different cell lines; endogenous in cells; host or cells: K-562, HL-60 and Jurkat nuclear lysates
Text: as §1, §2, §3

Structures can show the parent of a compound that is named as a salt. Where two headings read alike, the source gives them in different places.

T5 sequence (O15460 22-535): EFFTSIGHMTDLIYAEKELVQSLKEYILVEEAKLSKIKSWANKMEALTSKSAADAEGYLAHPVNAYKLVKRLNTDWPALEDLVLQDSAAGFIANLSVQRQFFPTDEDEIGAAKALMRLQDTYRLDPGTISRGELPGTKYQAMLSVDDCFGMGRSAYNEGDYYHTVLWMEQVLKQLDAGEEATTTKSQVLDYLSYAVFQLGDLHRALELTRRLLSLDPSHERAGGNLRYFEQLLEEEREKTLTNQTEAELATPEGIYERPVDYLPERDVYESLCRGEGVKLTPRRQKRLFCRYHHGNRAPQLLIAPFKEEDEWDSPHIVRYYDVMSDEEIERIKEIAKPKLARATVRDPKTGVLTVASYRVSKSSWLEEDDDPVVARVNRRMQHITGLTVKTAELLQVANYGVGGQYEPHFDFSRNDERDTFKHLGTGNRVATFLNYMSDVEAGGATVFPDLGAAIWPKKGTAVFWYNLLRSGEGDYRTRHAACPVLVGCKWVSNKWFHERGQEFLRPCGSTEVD
T5 sequence (P07237 18-508 partner): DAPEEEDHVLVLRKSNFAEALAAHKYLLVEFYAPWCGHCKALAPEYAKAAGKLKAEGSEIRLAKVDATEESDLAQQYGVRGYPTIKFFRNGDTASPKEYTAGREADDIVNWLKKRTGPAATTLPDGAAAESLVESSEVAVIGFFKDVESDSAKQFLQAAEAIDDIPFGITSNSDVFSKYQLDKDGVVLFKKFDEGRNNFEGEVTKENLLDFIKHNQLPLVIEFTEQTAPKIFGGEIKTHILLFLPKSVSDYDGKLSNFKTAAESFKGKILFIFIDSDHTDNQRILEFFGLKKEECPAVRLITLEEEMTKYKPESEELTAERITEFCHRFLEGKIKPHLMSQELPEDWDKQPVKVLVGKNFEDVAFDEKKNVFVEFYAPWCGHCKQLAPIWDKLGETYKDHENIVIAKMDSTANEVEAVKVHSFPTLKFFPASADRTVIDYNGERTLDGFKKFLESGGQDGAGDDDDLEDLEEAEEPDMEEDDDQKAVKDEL
T3 sequence (Q96KS0 whole entry): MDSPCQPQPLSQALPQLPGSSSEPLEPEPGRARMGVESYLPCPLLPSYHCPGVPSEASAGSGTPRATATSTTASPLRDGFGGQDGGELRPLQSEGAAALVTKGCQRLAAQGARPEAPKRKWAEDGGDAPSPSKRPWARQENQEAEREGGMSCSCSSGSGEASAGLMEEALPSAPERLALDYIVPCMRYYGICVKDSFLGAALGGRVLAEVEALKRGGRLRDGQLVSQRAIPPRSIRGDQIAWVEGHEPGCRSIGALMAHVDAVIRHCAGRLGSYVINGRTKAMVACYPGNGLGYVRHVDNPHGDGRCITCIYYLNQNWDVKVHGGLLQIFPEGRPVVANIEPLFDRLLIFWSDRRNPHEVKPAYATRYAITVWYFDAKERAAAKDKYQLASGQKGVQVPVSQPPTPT

`O=C(O)CNC(=O)C1C(=O)OC2(CCNCC2)OC1=O` [compound A, 2-(2,4-dioxo-1,5-dioxa-9-azaspiro[5.5]undecane-3-carboxamido)acetic acid hydrochloride]: the remaining binding at 100 µM in assay [1] (HL-60 nuclear lysate) stood at 104%; in assay [1] (Jurkat nuclear lysate), 49%; in assay [1] (K-562 nuclear lysate), 50%; in assay [2] (HL-60 nuclear lysate), 126%; in assay [2] (Jurkat nuclear lysate), 90%; in assay [2] (K-562 nuclear lysate) it was 100%. For the same molecule, the remaining binding at 100 µM amounted to 124% in assay [3] (HL-60 nuclear lysate); 123% in assay [3] (Jurkat nuclear lysate); 75% in assay [3] (K-562 nuclear lysate); 82% in assay [4] (HL-60 nuclear lysate); 55% in assay [4] (Jurkat nuclear lysate); 54% in assay [4] (K-562 nuclear lysate). Further, the remaining binding at 100 µM worked out at 279% in assay [5] (HL-60 nuclear lysate), 136% in assay [5] (Jurkat nuclear lysate) and 28% in assay [5] (K-562 nuclear lysate).
